Test results: ChEMBL document CHEMBL1921764, “Substrate profiling of IGF-1R and InsR: identification of a potent pentamer substrate” (Bioorg Med Chem Lett, 2011)
The source made the active and inactive calls. The calls are words filed in the database; no cut-off is given here. Peptide text beside a SMILES is read from it.

Tests used:
[1] = molecular target: Insulin-like growth factor 1 receptor (Homo sapiens) (UniProt P08069); test: Activity of pre-activated human GST-His6-tagged IGF-1R assessed as compound phosphorylation at 500 uM measured every 2 mins for 60 mins by ADP-Quest assay
Sequence of Insulin-like growth factor 1 receptor (Homo sapiens) (P08069 31-736 limits assumed): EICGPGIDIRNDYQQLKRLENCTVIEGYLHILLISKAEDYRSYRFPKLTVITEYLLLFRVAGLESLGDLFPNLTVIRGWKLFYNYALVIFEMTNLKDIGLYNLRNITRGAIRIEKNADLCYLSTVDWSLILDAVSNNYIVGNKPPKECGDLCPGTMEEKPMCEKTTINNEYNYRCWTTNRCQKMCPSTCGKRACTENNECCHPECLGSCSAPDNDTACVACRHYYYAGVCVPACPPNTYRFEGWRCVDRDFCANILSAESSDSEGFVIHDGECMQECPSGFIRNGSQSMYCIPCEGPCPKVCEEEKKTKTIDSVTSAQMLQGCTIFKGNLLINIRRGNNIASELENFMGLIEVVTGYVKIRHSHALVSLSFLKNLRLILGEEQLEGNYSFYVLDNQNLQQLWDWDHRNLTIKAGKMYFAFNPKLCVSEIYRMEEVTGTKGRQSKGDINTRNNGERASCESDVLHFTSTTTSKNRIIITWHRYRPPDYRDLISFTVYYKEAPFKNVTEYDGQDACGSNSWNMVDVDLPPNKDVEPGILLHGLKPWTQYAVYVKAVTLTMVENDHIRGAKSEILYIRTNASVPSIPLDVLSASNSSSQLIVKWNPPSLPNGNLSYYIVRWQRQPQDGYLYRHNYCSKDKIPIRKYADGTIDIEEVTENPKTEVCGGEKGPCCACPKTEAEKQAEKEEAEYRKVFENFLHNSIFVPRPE
Sequence of Insulin-like growth factor 1 receptor (Homo sapiens) (P08069 741-1367 limits assumed): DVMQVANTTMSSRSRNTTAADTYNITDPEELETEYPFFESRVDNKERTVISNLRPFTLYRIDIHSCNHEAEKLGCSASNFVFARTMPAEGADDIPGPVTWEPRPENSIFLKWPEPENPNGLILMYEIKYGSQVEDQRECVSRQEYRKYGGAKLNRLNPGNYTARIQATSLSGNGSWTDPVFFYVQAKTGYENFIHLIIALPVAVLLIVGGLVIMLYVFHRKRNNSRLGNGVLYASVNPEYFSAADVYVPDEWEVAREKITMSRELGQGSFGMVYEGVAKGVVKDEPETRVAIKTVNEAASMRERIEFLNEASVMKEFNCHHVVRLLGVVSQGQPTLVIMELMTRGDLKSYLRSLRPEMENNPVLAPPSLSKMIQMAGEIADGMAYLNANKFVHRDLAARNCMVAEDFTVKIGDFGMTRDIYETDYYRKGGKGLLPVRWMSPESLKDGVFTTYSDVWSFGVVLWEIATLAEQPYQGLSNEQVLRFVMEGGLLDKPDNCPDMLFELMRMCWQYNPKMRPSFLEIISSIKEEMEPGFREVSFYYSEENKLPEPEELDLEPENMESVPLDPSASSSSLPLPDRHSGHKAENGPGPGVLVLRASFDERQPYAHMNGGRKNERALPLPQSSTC

[2] = molecular target: Insulin receptor (Homo sapiens) (UniProt P06213); test: Activity of pre-activated human GST-His6-tagged InsR assessed as compound phosphorylation at 500 uM measured every 2 mins for 60 mins by ADP-Quest assay
Sequence of Insulin receptor (Homo sapiens) (P06213 28-758 limits assumed): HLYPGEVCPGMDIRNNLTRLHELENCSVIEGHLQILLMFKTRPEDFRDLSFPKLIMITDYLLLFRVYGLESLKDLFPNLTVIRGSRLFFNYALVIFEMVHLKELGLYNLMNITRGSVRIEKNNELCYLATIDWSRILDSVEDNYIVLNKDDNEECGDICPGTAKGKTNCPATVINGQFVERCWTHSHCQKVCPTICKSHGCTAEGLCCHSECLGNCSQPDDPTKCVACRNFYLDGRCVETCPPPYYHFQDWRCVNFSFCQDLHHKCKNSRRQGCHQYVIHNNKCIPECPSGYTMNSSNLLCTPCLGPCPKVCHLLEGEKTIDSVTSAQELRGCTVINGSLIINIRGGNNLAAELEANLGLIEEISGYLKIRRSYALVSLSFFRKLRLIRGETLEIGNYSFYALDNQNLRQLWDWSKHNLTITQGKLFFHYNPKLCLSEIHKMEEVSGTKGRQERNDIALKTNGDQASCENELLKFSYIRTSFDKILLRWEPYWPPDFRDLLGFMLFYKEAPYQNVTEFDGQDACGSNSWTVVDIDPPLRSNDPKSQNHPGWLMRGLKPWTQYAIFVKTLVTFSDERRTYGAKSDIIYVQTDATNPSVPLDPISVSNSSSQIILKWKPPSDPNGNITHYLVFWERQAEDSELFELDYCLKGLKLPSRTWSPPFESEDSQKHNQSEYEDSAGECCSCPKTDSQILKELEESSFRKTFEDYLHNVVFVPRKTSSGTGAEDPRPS
Sequence of Insulin receptor (Homo sapiens) (P06213 763-1382 limits assumed): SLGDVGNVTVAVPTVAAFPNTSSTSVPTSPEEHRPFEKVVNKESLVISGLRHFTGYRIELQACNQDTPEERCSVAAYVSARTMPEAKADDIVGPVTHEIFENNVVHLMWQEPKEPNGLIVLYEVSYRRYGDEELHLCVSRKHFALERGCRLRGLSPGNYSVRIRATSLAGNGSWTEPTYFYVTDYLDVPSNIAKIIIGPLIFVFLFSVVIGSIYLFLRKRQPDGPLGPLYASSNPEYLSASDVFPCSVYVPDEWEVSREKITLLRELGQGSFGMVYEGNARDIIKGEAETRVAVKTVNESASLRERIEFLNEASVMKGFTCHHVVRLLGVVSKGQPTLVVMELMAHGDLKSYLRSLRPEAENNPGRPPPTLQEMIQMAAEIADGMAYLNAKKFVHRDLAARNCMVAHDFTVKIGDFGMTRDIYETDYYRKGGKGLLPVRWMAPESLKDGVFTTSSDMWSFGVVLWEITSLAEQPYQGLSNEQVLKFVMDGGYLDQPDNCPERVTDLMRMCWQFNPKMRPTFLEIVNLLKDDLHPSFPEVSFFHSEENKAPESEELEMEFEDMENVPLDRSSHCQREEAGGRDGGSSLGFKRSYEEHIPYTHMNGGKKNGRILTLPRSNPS

With H-KKKSPGEYVNAEFG-OH the Activity [1] was “inactive” and the Activity [2] was “inactive”.

With `N[C@@H](Cc1ccc(O)cc1)C(=O)N[C@@H](Cc1ccccc1)C(=O)N[C@@H](CCC(=O)O)C(=O)N[C@@H](Cc1c[nH]c2ccccc12)C(=O)O` (H-YFEW-OH) the Activity [2] was “inactive”.

In the case of H-SPGEYVNI-OH, the Activity [1] is reported as “inactive” and the Activity [2] is reported as “inactive”.

For H-EQEDEPEGDYFEALE-OH, the Activity [1] was “inactive” and the Activity [2] was “inactive”.

For `N[C@@H](CC(=O)O)C(=O)N[C@@H](Cc1ccc(O)cc1)C(=O)N[C@@H](Cc1ccccc1)C(=O)N[C@@H](CCC(=O)O)C(=O)O` (H-DYFE-OH), the Activity [1] was “inactive” and the Activity [2] was “inactive”.

For H-PGEYVN-OH, the Activity [1] was “inactive” and the Activity [2] was “inactive”.

With H-GEYVN-OH the Activity [1] was “inactive” and the Activity [2] was “inactive”.

With H-GDYFE-OH the Activity [2] was “inactive”.

In the case of H-KSPGEYVNIE-OH, the Activity [1] is reported as “inactive” and the Activity [2] is reported as “inactive”.

For H-SPGEYVNIE-OH, the Activity [1] was “inactive” and the Activity [2] was “inactive”.

For H-PGEYVNI-OH, the Activity [1] was “inactive” and the Activity [2] was “inactive”.

With H-EQEDEPEGAYFEWLE-OH the Activity [1] was “inactive” and the Activity [2] was “inactive”.

With `N[C@@H](Cc1ccc(O)cc1)C(=O)N[C@@H](Cc1ccccc1)C(=O)N[C@@H](CCC(=O)O)C(=O)O` (H-Tyr-Phe-Glu-OH) the Activity [1] was “inactive” and the Activity [2] was “inactive”.

For H-KKKSPGEYVNIEAG-OH, the Activity [1] was “inactive” and the Activity [2] was “inactive”.
